Source: US10004702B2, “Linear guanidine derivatives, methods of preparation and uses thereof” (LEAD DISCOVERY SIENA S.R.L., priority 2014, dated 2018)
In brackets after ≈: the same amount, converted by molar mass. Like-named read-outs stand apart in the source and are kept apart here.

Experiments:
Escherichia coli CCUG^T = assay: Bactericidal activity (MBC); type: cell-based
[1] = tested on: Enterobacter cloacae VA-417/02 (VIM-4); assay: Bactericidal activity (MBC); type: cell-based
Human Serum Albumin = Human Serum Albumin (Homo sapiens, UniProt P02768); assay: Binding fluorimetric assay (tryptophan quenching); conditions: fixed concentration of HSA titrated with different amounts of compound
Protocol: The solutions were mixed and after allowing 30 minutes at room temperature to reach the equilibrium conditions, the spectra were recorded. […] The percentages obtained were plotted against the concentrations used and the KD values were calculated using GraphPad software (version 5.0).

[2] = tested on: Acinetobacter baumannii ATCC 17978; assay: Bactericidal activity (MBC); type: cell-based; conditions: ATCC17978
[3] = tested on: Acinetobacter baumannii AC-54/97 (IMP-2); assay: Bactericidal activity (MBC); type: cell-based
[4] = tested on: Klebsiella pneumoniae 081R; assay: Antimicrobial susceptibility testing, MIC by microdilution broth method; type: cell-based; conditions: Klebsiella pneumoniae, 081R
Protocol: (§1) Bacterial strains were obtained from the ATCC or CCUG culture collections or present in the authors' collection of clinical isolates. Compounds were re-suspended in dimethyl sulfoxyde (DMSO) at a final concentration of 10 mg/ml and subsequently diluted in the culture medium. The minimum inhibitory concentrations (MICs) of the compounds of the invention were determined using the microdilution broth method using Mueller-Hinton broth as recommended by the Clinical Laboratory Standards Institute (CLSI [11]). Bacterial inoculum was 5×10^4 CFU/well. MICs were recorded after 18-24 hours incubation at 35-37° C.
(§2) The Antibacterial activity of compound 28 was also tested on a panel of Gram-negative and Gram-positive clinical isolates, showing various antimicrobial susceptibility profiles (Table 4). The class of drugs for which the isolate was resistant to is indicated in column 2 (PEN, penicillins; ES-CEPH, expanded-spectrum cephalosporins; CARB, carbapenems; AZT; aztreonam; AG, aminoglycosides; FQ, fluoroquinolones; SXT, trimethoprim/sulfamethoxazole; FOS, fosfomycin; GLY, glycopeptides; LNZ, linezolid; COL-R, colistin resistant; COL-S colistin sensitive; PDR, poly-drug resistant).

[5] = tested on: Enterobacter cloacae VA-417/02 (VIM-4); assay: as above; type: cell-based; conditions: Enterobacter cloacae, read-out: MIC
Protocol: as §1, §2

[6] = tested on: Acinetobacter baumannii AC-54/97 (IMP-2); assay: as above; type: cell-based; conditions: Acinetobacter baumannii, read-out: MIC
Protocol: as §1, §2

[7] = Parallel Artificial Membrane Permeability Assay (PAMPA); type: in vitro ADME; conditions: pH 7.4, 5 h at room temperature, read-out: apparent permeability (Papp)
Protocol: Donor solution (0.5 mM) was prepared by diluting 1 mM dimethylsulfoxide (DMSO) compound stock solution using tris-HCl buffer (50 mM) at pH 7.4. Filters were coated with 5 μL of a 1% (w/v) dodecane solution of phosphatidylcholine. Donor solution (150 μL) was added to each well of the filter plate. To each well of the acceptor plate were added 300 μL of solution (50% DMSO in phosphate buffer). Compound 28 was tested in three different plates on different days. The sandwich was incubated for 5 h at room temperature under gentle shaking. After the incubation time, the plates were separated, and samples were taken from both receiver and donor sides and analyzed using LC with UV detection at 210 and 254 nm. LC analysis were performed with a Perkin-Elmer (series 200) instrument equipped with an UV detector (Perkin-Elmer […], UV/vis Detector). Chromatographic separation were conducted using a Polaris C18 column (150-4.6 mm, 5 μm particle size) at a flow rate of 0.8 mL min-1 with a mobile phase composed of 50% CH3CN/50% H2O-formic acid 0.1%. Permeability (Papp) was calculated according to equation 1, obtained from Sugano [12] and Wohnsland [13] equation with some modification to obtain values in cm/s. […]

[8] = tested on: human liver microsomial enzymes; assay: Metabolic stability assay; type: in vitro ADME; conditions: human liver microsomes, 1 h of incubation at 37° C., 50 μM
Protocol: The reaction was stopped by cooling in ice and adding 1.0 mL of acetonitrile. The reaction mixtures were then centrifuged, and the parent drug and metabolites were subsequently determined by LC-UV-MS as reported for the solubility assay

[9] = tested on: Enterococcus faecalis ATCC 19433; assay: Bactericidal activity (MBC); type: cell-based; conditions: ATCC19433
[10] = tested on: Stenotrophomonas maltophilia 634/08; assay: Bactericidal activity (MBC); type: cell-based
[11] = tested on: Klebsiella pneumoniae ATCC 13833; assay: Bactericidal activity (MBC); type: cell-based; conditions: ATCC13833
Water solubility = type: physicochemical; conditions: thermodynamic from solid, room temperature, LC-UV-MS
Protocol: Solid compound 28 (1.01 mg) was added to 1 mL of water. The sample was shaken in a shaker bath at room temperature for 24 h. The suspension was filtered through a 0.45-μm nylon filter (Acrodisc), and the solubilised compound determined by LC-UV-MS assay. The determination was performed in triplicate. For the quantification was used an LC-UV-MS system consisted of a Varian apparatus (Varian Inc) including a vacuum solvent degassing unit, two pumps (212-LC), a Triple Quadrupole MSD (Mod. 320-LC) mass spectrometer with ES interface and Varian MS Workstation System Control Vers. 6.9 software. Chromatographic separation was obtained using a Pursuit C18 column (50×2.0 mm) (Varian) with 3 μm particle size and gradient elution: eluent A being CH3CN and eluent B consisting of an aqueous solution of formic acid (0.1%).
The flow rate was 0.4 ml/min and injection volume was 20 μL. The instrument operated in positive mode and parameters were: detector 1850 V, drying gas pressure 25.0 psi, desolvation temperature 300.0° C., nebulizing gas 45.0 psi, needle 5000 V and shield 600 V. Nitrogen was used as nebulizer and drying gas. Collision induced dissociation was performed using Argon as the collision gas at a pressure of 1.8 mTorr in the collision cell, the collision energy was set to 149 eV. UV lamp was set to 210 nm. […]

Sequence of Human Serum Albumin (P02768 25-609): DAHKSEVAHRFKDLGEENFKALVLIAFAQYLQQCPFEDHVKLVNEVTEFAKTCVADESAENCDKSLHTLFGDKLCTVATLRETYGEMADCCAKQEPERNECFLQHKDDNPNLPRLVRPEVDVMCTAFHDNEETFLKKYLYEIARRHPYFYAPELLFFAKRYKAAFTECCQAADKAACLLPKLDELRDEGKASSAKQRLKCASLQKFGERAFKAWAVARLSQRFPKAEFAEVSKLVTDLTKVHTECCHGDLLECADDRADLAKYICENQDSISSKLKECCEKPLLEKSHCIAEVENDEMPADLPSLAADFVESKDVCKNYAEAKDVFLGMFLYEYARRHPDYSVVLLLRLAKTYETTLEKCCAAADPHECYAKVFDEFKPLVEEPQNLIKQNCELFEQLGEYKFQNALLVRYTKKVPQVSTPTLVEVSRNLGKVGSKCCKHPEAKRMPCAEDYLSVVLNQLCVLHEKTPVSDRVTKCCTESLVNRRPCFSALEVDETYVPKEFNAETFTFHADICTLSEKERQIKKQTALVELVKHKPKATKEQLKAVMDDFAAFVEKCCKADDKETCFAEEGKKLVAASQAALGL

N=C(N)NCCCCCCCCN(CCCCCCCCNC(=N)NCC1CC1)C(=O)N(CCCCCCCCNC(=N)N)CCCCCCCCNC(=N)NCC1CC1 [Compound 28, 1,3-bis(8-(3-(cyclopropylmethyl)guanidino)octyl)-1,3-bis(8-guanidinooctyl)urea]
MBC (Escherichia coli CCUG^T): 1 µg/mL (≈ 1.18 µM)
MBC [1]: 1 µg/mL (≈ 1.18 µM)
intrinsic fluorescence decrease of HSA (Human Serum Albumin): scarce intrinsic fluorescence decrease
MBC [2]: 4 µg/mL (≈ 4.73 µM)
MBC [3]: 2 µg/mL (≈ 2.37 µM)
MIC ([4]; Table 4, resistance profile PDR, read-out: MIC): 4 µg/mL (≈ 4.73 µM)
MIC ([4]; Tables 2 and 3, read-out: MIC): 2 µg/mL (≈ 2.37 µM)
MIC ([5]; Enterobacter cloacae VA-417/02 (VIM-4), Tables 2 and 3): 1 µg/mL (≈ 1.18 µM)
MIC ([5]; Table 4, Enterobacter cloacae VA-417/02, resistance profile PEN, CEPH, CARB, AG, FQ): 2 µg/mL (≈ 2.37 µM)
MIC ([6]; Acinetobacter baumannii AC-54/97 (IMP-2), Tables 2 and 3): 2 µg/mL (≈ 2.37 µM)
MIC ([6]; Table 4, Acinetobacter baumannii AC-54/97, resistance profile PEN, ES-CEPH, CARB, AZT, AG, FQ, FOS, SXT): 4 µg/mL (≈ 4.73 µM)
Papp at 5 h, 0.5 mM [7]: 1.6 ×10⁻⁶ cm/s
metabolic stability [8]: 99.9%
MBC [9]: < 0.125 µg/mL
MBC [10]: 16 µg/mL (≈ 18.9 µM)
MBC [11]: 1 µg/mL (≈ 1.18 µM)
solubility at 24 h (Water solubility): 292 µg/mL (≈ 345 µM)
